molecular target: T1, HCV-NS5b (Hepatitis C virus genotype 1b, UniProt Q9WMX2); assay: HCV-NS5b enzyme assay using homopolymer substrate; assay type: biochemical; settings: not given
T1 construct: (His)6 (C); made in house; host or cells: XL-1 cells (E. coli), IPTG-inducible plasmid
From the text: The coding sequence of NS5b protein was cloned by PCR from pFKI389luc/NS3-3′/ET as described by Lohmann, V., et al. (1999) Science 285, 110-113 using the primers shown on page 266 of WO 2005/012288
The cloned fragment is missing the C terminus 21 amino acid residues. The cloned fragment was inserted into an IPTG-inducible (isopropyl-β-D-thiogalactopyranoside) expression plasmid that provides an epitope tag (His)6 at the carboxy terminus of the protein.
The recombinant enzyme was expressed in XL-1 cells and after induction of expression, the protein was purified using affinity chromatography on a nickel-NTA (nitrilotriacetic acid) column. Storage condition was 10 mM Tris-HCl pH 7.5, 50 mM NaCl, 0.1 mM EDTA (ethylenediaminetetraacetic acid), 1 mM DTT (dithiothreotol), 20% glycerol at −20° C.
The polymerase activity was assayed by measuring incorporation of radiolabeled UTP into a RNA product using a biotinylated, homopolymeric template. The template was formed by annealing adenosine homopolymer to uridine 20-mer capped with a 5′-biotin group (biotin-U^20) in the ratio of 1:4. Typically, the assay mixture (50 μL) contained 25 mM Tris-HCl (pH 7.5), 40 mM KCl, 0.3 mM MgCl2, 0.05 mM EDTA, 0.2 unit/μL Superase RNAse Inhibitor, 5 mM DTT, 30 μM UTP (Uridine triphosphate), including [^3H]-UTP (uridine triphosphate) at 0.4 μCi/μL with final concentration of 1 μM, and 50 nM of homopolymeric template. Test compounds were initially dissolved in 100% DMSO and further diluted in aqueous buffer containing 5% DMSO. Typically, compounds were tested at concentrations between 2 nM and 50 μM. Reactions were started with addition of enzyme and allowed to continue at 30° C. for 90 minutes. Reactions were quenched with 8 μL of 100 mM EDTA and reaction mixtures (30 μL) were transferred to streptavidin-coated scintillation proximity microtiter plates (FlashPlates) and incubated at room temperature overnight. Incorporation of radioactivity was determined by scintillation counting.
Inhibitor IC50 values were determined by adding test compound as ten point, two-fold serial dilutions in 100% DMSO with a final reaction concentration of 5%. IC50 was calculated by plotting the % inhibition against compound concentration and fitting the data to a constrained four parameter sigmoidal curve, equivalent to the “four parameter logistic equation”:
Where Bottom is the minimum Y value, Top is the maximum Y value, and Hillslope is the slope of the linear portion of the semi-log curve. Top and Bottom were constrained to values of 0% and 100%, respectively. These analyses were performed using Graphpad Prism v.4.0 (Graphpad Software, Inc.) in conjunction with DS Accord for EXCEL 6.0 (Accelrys, Microsoft Corp.).
The table below lists the IC50 values of compounds determined using the homopolymer substrates.

SMILES | IC50 [nM]
O=C(O)c1ccc2c(C3CCCCC3)c3n(c2c1)CCCn1cc(C(=O)C(=O)N2CCCCC2)c2cccc-3c21 [Compound 114] | 89
CN1CCN(C(=O)C(=O)c2cn3c4c(cccc24)-c2c(C4CCCCC4)c4ccc(C(=O)O)cc4n2CCC3)CC1 [Compound 123] | 155

same assay, conditions: homopolymer substrate, [3H]-UTP incorporation, 30° C., 90 minutes; read-out: IC50

SMILES | IC50 [nM]
O=C(O)c1ccc2c(C3CCCCC3)c3n(c2c1)CC(CO)Cn1ccc2cccc-3c21 (racemic) [Compound 377] | 280
O=C(O)c1ccc2c(C3CCCCC3)c3n(c2c1)CCCCn1cc(CN2CCCCC2)c2cccc-3c21 [Compound 105] | 131
O=C(O)c1ccc2c(C3CCCCC3)c3n(c2c1)CCCn1cc(CN2CCOCC2)c2cccc-3c21 [Compound 107] | 19
COC1CCN(Cc2cn3c4c(cccc24)-c2c(C4CCCCC4)c4ccc(C(=O)O)cc4n2CCC3)CC1 [Compound 115] | 87
O=C(O)c1ccc2c(C3CCCCC3)c3n(c2c1)CCCn1cc(CN2CCCCO2)c2cccc-3c21 [Compound 116] | 138
O=C(O)c1ccc2c(C3CCCCC3)c3n(c2c1)CCn1cc(CN2CCCCC2)c2cccc-3c21 [Compound 118] | 48
O=C(O)c1ccc2c(C3CCCCC3)c3n(c2c1)CCCn1cc(CN2CCCCC2)c2cccc-3c21 [Compound 119] | 114
O=C(O)c1ccc2c(C3CCCCC3)c3n(c2c1)CCCn1cc(CN2CCCC2)c2cccc-3c21 [Compound 121] | 49
O=C(O)c1ccc2c(C3CCCCC3)c3n(c2c1)CCn1cc(CN2CCOCC2)c2cccc-3c21 [Compound 122] | 51
COC1CCCN(Cc2cn3c4c(cccc24)-c2c(C4CCCCC4)c4ccc(C(=O)O)cc4n2CCC3)C1 (stereo not drawn) [Compound 124] | 114
CN1CCN(Cc2cn3c4c(cccc24)-c2c(C4CCCCC4)c4ccc(C(=O)O)cc4n2CCC3)CC1 [Compound 125] | 68
O=C(O)c1ccc2c(C3CCCCC3)c3n(c2c1)CCCn1cc(CN2CCC(F)(F)CC2)c2cccc-3c21 [Compound 127] | 290
O=C(O)c1ccc2c(C3CCCCC3)c3n(c2c1)CCCn1cc(CN2CCSCC2)c2cccc-3c21 [Compound 128] | 101
CCC(CC)NCc1cn2c3c(cccc13)-c1c(C3CCCCC3)c3ccc(C(=O)O)cc3n1CCC2 [Compound 132] | 223
O=C(O)c1ccc2c(C3CCCCC3)c3n(c2c1)CCCn1cc(CCN2CCCCC2)c2cccc-3c21 [Compound 204] | 118
CC1CN(Cc2cn3c4c(cccc24)-c2c(C4CCCCC4)c4ccc(C(=O)O)cc4n2CCC3)CC(C)O1 (stereo not drawn) [Compound 330] | 113

SMILES | IC50 [nM]
C=C1Cn2cc(CN3CCCCC3)c3cccc(c32)-c2c(C3CCCCC3)c3ccc(C(=O)O)cc3n2C1 [Compound 341] | 135
O=C(O)c1ccc2c(C3CCCCC3)c3n(c2c1)CCCn1cc(CN2CCCCC2)c2c(F)ccc-3c21 [Compound 345] | 127
CCN(CC)Cc1cn2c3c(ccc(F)c13)-c1c(C3CCCCC3)c3ccc(C(=O)O)cc3n1CCC2 [Compound 346] | 119
CN1CCN(Cc2cn3c4c(ccc(F)c24)-c2c(C4CCCCC4)c4ccc(C(=O)O)cc4n2CCC3)CC1 [Compound 348] | 143
O=C(O)c1ccc2c(C3CCCCC3)c3n(c2c1)CCn1cc(CCN2CCCCC2)c2cccc-3c21 [Compound 349] | 98
O=C(O)c1ccc2c(C3CCCCC3)c3n(c2c1)CCCn1cc(CN2CCC(F)CC2)c2cccc-3c21 [Compound 352] | 89
CCN1CCN(Cc2cn3c4c(cccc24)-c2c(C4CCCCC4)c4ccc(C(=O)O)cc4n2CCC3)CC1 [Compound 356] | 120
CSCCNCc1cn2c3c(cccc13)-c1c(C3CCCCC3)c3ccc(C(=O)O)cc3n1CCC2 [Compound 358] | 153
O=C(O)c1ccc2c(C3CCCCC3)c3n(c2c1)CCCn1cc(CNC2CCOCC2)c2cccc-3c21 [Compound 360] | 149
CCN(Cc1cn2c3c(cccc13)-c1c(C3CCCCC3)c3ccc(C(=O)O)cc3n1CCC2)C(C)C [Compound 361] | 176
COCCN(CCOC)Cc1cn2c3c(cccc13)-c1c(C3CCCCC3)c3ccc(C(=O)O)cc3n1CCC2 [Compound 362] | 337
O=C(O)c1ccc2c(C3CCCCC3)c3n(c2c1)CCCn1cc(CN(CCO)CCO)c2cccc-3c21 [Compound 363] | 124
CC1CCC(NCc2cn3c4c(cccc24)-c2c(C4CCCCC4)c4ccc(C(=O)O)cc4n2CCC3)CC1 (stereo not drawn) [Compound 364] | 277
CC(=O)N1CCN(Cc2cn3c4c(cccc24)-c2c(C4CCCCC4)c4ccc(C(=O)O)cc4n2CCC3)CC1 [Compound 365] | 88
CCCNCc1cn2c3c(cccc13)-c1c(C3CCCCC3)c3ccc(C(=O)O)cc3n1CCC2 [Compound 366] | 121

Results, then the molecule that gave them:

IC50 [nM] | SMILES
83 | CN(C)Cc1cn2c3c(cccc13)-c1c(C3CCCCC3)c3ccc(C(=O)O)cc3n1CC2 [Compound 108]
96 | CC(C)NCc1cn2c3c(cccc13)-c1c(C3CCCCC3)c3ccc(C(=O)O)cc3n1CCC2 [Compound 110]
106 | CN(C)Cc1cn2c3c(cccc13)-c1c(C3CCCCC3)c3ccc(C(=O)O)cc3n1CCC2 [Compound 111]
109 | CN(C)Cc1cn2c3c(cccc13)-c1c(C3CCCCC3)c3ccc(C(=O)O)cc3n1CCCC2 [Compound 112]
84 | O=C(O)c1ccc2c(C3CCCCC3)c3n(c2c1)CCCn1cc(CN2CCC2)c2cccc-3c21 [Compound 113]
108 | CC1CCN(Cc2cn3c4c(cccc24)-c2c(C4CCCCC4)c4ccc(C(=O)O)cc4n2CCC3)CC1 [Compound 117]
85 | CCN(CC)Cc1cn2c3c(cccc13)-c1c(C3CCCCC3)c3ccc(C(=O)O)cc3n1CCC2 [Compound 120]
96 | O=C(O)c1ccc2c(C3CCCCC3)c3n(c2c1)CCCn1cc(CN2CC[C@@H](F)C2)c2cccc-3c21 [Compound 126]
96 | CCN(C)Cc1cn2c3c(cccc13)-c1c(C3CCCCC3)c3ccc(C(=O)O)cc3n1CCC2 [Compound 129]
111 | CC1CCCN(Cc2cn3c4c(cccc24)-c2c(C4CCCCC4)c4ccc(C(=O)O)cc4n2CCC3)C1 (stereo not drawn) [Compound 130]
208 | O=C(O)c1ccc2c(C3CCCCC3)c3n(c2c1)CCCn1cc(CNC2CC2)c2cccc-3c21 [Compound 131]
278 | CN(C)CCc1cn2c3c(cccc13)-c1c(C3CCCCC3)c3ccc(C(=O)O)cc3n1CCC2 [Compound 214]
65 | CC(C)NC1CCN2CCn3c(c(C4CCCCC4)c4ccc(C(=O)O)cc43)-c3cccc1c32 (stereo not drawn) [Compound 276]
56 | CCCNC1CCN2CCn3c(c(C4CCCCC4)c4ccc(C(=O)O)cc43)-c3cccc1c32 (stereo not drawn) [Compound 277]
59 | O=C(O)c1ccc2c(C3CCCCC3)c3n(c2c1)CCN1CCC(NC2CCOCC2)c2cccc-3c21 (stereo not drawn) [Compound 282]
79 | CN(C)C1CCN2CCn3c(c(C4CCCCC4)c4ccc(C(=O)O)cc43)-c3cccc1c32 (stereo not drawn) [Compound 285, 15-Cyclohexyl-4-(dimethylamino)-5,6,8,9-tetrahydro-4H-indolo[1′,2′:4,5][1,4]diazepino[6,7,1-ij]quinoline-12-carboxylic acid]
1290 | CCN(C)Cc1cn2c3c(cccc13)-c1c(C3CCCCC3)c3ccc(C(=O)O)cc3n1CCC2 [Compound 337]
133 | O=C(O)c1ccc2c(C3CCCCC3)c3n(c2c1)CCCn1ccc2c(F)ccc-3c21 [Compound 344]
122 | CCN(C)Cc1cn2c3c(ccc(F)c13)-c1c(C3CCCCC3)c3ccc(C(=O)O)cc3n1CCC2 [Compound 347]
65 | CCN(CC)Cc1cn2c3c(cccc13)-c1c(C3CCCCC3)c3ccc(C(=O)O)cc3n1CC2 [Compound 350]
56 | CCN(C)Cc1cn2c3c(cccc13)-c1c(C3CCCCC3)c3ccc(C(=O)O)cc3n1CC2 [Compound 351]
109 | O=C(O)c1ccc2c(C3CCCCC3)c3n(c2c1)CCCn1cc(CN2CCCC(F)C2)c2cccc-3c21 (stereo not drawn) [Compound 353]
110 | O=C(O)c1ccc2c(C3CCCCC3)c3n(c2c1)CCCn1cc(CN2CC[C@H](F)C2)c2cccc-3c21 [Compound 354]
155 | O=C(O)c1ccc2c(C3CCCCC3)c3n(c2c1)CCCn1cc(CN2CCCC(O)C2)c2cccc-3c21 (stereo not drawn) [Compound 359]

Reference: US20090197856A1, “ANTIVIRAL COMPOUNDS” (Genelabs Technologies, Inc., priority 2007, published 2009)
